According to publication PMC7999658, “Characterization of P-Glycoprotein Inhibitors for Evaluating the Effect of P-Glycoprotein on the Intestinal Absorption of Drugs” (Pharmaceutics, 2021):
Read-outs that look alike come from different tables or passages of the source. Blank lines part the entries; values can stand above or below the compound they belong to.

How the values were obtained:
P-gp [1] = target: T1, P-gp (Homo sapiens, UniProt P08183); test: Inhibition of P-gp-mediated transport of paclitaxel across Caco-2 cell monolayers; type: cell-based
T1 construct: host or cells: Caco-2
Protocol: Caco-2 cells from Dainippon Sumitomo Pharma (Osaka, Japan) were cultured in DMEM supplemented with 10% heat-inactivated fetal bovine serum, 1% antibiotic-antimycotic, 1% nonessential amino acids, and 2 mM L-glutamine [31]. Cells were maintained at 37 °C in 5% CO2/95% air and passaged upon reaching approximately 80% confluence using 0.25% trypsin/1 mM EDTA solution. For transport experiments, Caco-2 cells were grown on a polyethylene terephthalate insert (0.4 μm pore size, 12 mm diameter) at 1.0 × 10^5 cells/well, and cultured for 14–21 days with the replacement of the medium once every 2 days. Caco-2 cells used in this study were within the passage range of 55 through 70.
(§1) The efflux ratio (ER) was calculated using Equation (3) ER = Papp,BA/Papp,AB(3) where Papp,AB and Papp,BA are the Papp values for AP-to-BL and BL-to-AP transport, respectively.
(§2) IC50 values of Papp,BA and ER were also determined using Equation (4).

BCRP = target: T2, BCRP (Homo sapiens, UniProt Q9UNQ0); test: Inhibition of BCRP-mediated transport of mitoxantrone across Caco-2 cell monolayers; settings: Caco-2 monolayers
T2 sequence (Q9UNQ0 1-655): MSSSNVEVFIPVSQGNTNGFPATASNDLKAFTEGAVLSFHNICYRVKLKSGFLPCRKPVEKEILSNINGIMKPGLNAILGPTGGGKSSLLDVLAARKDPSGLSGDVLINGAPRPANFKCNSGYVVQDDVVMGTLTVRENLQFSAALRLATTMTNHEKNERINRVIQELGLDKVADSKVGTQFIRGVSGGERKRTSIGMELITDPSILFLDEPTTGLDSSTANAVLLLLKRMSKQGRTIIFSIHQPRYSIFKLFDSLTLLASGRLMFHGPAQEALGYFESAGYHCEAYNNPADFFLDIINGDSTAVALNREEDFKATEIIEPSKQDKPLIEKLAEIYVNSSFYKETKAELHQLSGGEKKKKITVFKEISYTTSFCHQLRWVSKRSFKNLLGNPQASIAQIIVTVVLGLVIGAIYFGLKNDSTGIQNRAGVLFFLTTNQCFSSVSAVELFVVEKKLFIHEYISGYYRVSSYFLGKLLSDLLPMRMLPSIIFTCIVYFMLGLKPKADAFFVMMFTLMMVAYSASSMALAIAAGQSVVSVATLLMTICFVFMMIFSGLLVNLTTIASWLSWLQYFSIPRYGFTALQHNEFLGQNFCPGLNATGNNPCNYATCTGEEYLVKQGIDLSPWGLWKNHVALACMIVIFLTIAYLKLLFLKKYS
Protocol: For transport experiments, Caco-2 cells were grown on a polyethylene terephthalate insert (0.4 μm pore size, 12 mm diameter) at 1.0 × 10^5 cells/well, and cultured for 14–21 days with the replacement of the medium once every 2 days. Caco-2 cells used in this study were within the passage range of 55 through 70.
as §1, §2

P-gp [2] = system: P-gp; parameters: method as in PMID 18678495; settings: cited from earlier work
[3] = paclitaxel 10 mg/kg po
[4] = for BA of paclitaxel: paclitaxel 20 mg/kg po vs 5 mg/kg IV
in vivo [5] = settings: FVB, mouse
in vivo [6] = settings: FVB, mouse, oral, 10 mg/kg
[7] = topotecan 2 mg/kg po; for concentration at 30 min: FVB, mouse, oral, 2 mg/kg
Protocol: Food and water were available ad libitum.
The flow rate was 1.0 mL/min.

Caco-2 cell monolayers = test: Caco-2 monolayer transport study: paracellular marker permeability and mass balance (% recovery); type: in vitro ADME, human; settings: Caco-2 monolayers, lucifer yellow 100 μM
[8] = Caco-2 monolayers, 50% decrease of efflux ratio, read-out: IC50 on ER of paclitaxel
[9] = Caco-2 monolayers, paclitaxel 5 μM, 50% decrease of Papp,BA, read-out: IC50 on Papp,BA of paclitaxel
[10] = Caco-2 monolayers, paclitaxel 5 μM, inhibitor concentration to achieve 50% increase of Papp,AB, read-out: IC50 on Papp,AB of paclitaxel
[11] = IC50 on Papp,BA of mitoxantrone, mitoxantrone 5 μM, 50% decrease of Papp,BA
[12] = paclitaxel 20 mg/kg po, WT mice
[13] = portal vein plasma, po, 20 mg/kg
[14] = systemic (abdominal vein) plasma, po, 20 mg/kg
[15] = male, portal vein plasma, po, 20 mg/kg
[16] = male, systemic (abdominal vein) plasma, po, 20 mg/kg
[17] = systemic (abdominal vein) plasma
[18] = male, systemic (abdominal vein) plasma

T1 sequence (P08183 whole entry): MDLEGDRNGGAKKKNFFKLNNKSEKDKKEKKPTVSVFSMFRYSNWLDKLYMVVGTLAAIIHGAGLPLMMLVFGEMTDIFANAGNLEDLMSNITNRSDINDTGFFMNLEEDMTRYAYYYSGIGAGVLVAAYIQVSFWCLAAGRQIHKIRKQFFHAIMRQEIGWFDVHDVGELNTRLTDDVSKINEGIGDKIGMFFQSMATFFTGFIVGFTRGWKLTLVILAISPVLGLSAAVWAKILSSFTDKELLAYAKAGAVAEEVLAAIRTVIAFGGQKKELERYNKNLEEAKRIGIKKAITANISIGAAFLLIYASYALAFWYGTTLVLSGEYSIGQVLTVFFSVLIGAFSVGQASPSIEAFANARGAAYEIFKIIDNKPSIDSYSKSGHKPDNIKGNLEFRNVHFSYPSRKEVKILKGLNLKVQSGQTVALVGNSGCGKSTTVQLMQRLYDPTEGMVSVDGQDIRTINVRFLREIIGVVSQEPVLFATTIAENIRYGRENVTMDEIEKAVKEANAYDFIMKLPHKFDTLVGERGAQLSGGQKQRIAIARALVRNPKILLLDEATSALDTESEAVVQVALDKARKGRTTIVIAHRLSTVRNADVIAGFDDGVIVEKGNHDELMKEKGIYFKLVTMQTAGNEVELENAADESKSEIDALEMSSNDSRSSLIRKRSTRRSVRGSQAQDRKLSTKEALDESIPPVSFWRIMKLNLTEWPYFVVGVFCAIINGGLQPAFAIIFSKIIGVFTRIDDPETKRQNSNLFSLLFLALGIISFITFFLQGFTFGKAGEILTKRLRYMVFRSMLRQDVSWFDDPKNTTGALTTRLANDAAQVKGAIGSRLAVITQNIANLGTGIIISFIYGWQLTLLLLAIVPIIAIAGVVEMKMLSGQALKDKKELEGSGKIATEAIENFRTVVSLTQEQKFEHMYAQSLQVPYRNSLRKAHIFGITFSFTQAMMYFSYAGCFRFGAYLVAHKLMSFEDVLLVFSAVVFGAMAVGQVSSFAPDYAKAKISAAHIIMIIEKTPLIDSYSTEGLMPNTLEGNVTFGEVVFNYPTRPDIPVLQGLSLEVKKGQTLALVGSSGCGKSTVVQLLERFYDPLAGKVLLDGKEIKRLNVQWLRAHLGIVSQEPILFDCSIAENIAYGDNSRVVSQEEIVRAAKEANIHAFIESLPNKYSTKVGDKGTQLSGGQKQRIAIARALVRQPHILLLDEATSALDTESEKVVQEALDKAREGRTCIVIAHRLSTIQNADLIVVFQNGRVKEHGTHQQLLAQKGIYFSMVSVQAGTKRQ

Compound: CCOC/C=C/c1ccc(-c2nc(-c3ccc(NC(C)C)cc3)c(-c3ccc(NC(C)C)cc3)[nH]2)cc1 [OC144-093, (E)-4,4’-(2-(4-[3-ethoxyprop-1-en-1-yl]phenyl)-1H-imidazole-4,5-diyl)bis(N-isopropylaniline)]
- transport of paclitaxel in Caco-2 cells on addition of inhibitor (P-gp [1]; 0.01-10 μM inhibitor): not changed
- Hill coefficient, ER of mitoxantrone (BCRP): 3.61 ± 0.41

Compound: COc1cc(C(=O)C(=O)N2CCCC[C@H]2C(=O)OC(CCCc2cccnc2)CCCc2cccnc2)cc(OC)c1OC [VX-710, (S)-N-(2-Oxo-2-(3,4,5-trimethoxyphenyl)-acetyl)piperidine-2-carboxylic acid 1,7-bis(3-pyridyl)-4-heptyl ester]
- Hill coefficient, ER of paclitaxel (P-gp [1]; Caco-2 monolayers): 1.68 ± 0.38
- IC50 (P-gp [1]; [8]): 871 ± 277 nM
- IC50 (P-gp [1]; [9]): 4500 ± 84 nM
- IC50 (P-gp [1]; [10]): 2680 ± 53 nM
- Hill coefficient, ER of mitoxantrone (BCRP): 0.46 ± 0.12
- IC50 (BCRP; IC50 on ER of mitoxantrone, 50% decrease of efflux ratio): 1640 ± 520 nM
- IC50 (BCRP; [11]): 2680 ± 31 nM

Compound: CC(=O)O[C@H]1C(=O)[C@@]2(C)[C@H]([C@H](OC(=O)c3ccccc3)[C@]3(O)C[C@H](OC(=O)[C@H](O)[C@@H](NC(=O)c4ccccc4)c4ccccc4)C(C)=C1C3(C)C)[C@]1(OC(C)=O)CO[C@@H]1C[C@@H]2O [paclitaxel]
- V of paclitaxel, mdr1a/1b KO mice versus WT mice ([3]; 10 min): approximately 3.5 fold
- Absorption Rate V of paclitaxel ([3]; 10 min, WT mice, no inhibitor): 15.7 nmol/min/kg
- Cpv of paclitaxel ([3]; 10 min, WT mice, no inhibitor): 439 ± 98 nM
- Cpv − Csys of paclitaxel ([3]; 10 min, WT mice, no inhibitor): 216 ± 80 nM
- Absorption Rate V of paclitaxel ([3]; 10 min, mdr1a/1b KO mice): 54.3 nmol/min/kg
- Cpv of paclitaxel ([3]; 10 min, mdr1a/1b KO mice): 967 ± 191 nM
- Cpv − Csys of paclitaxel ([3]; 10 min, mdr1a/1b KO mice): 749 ± 165 nM
- V of paclitaxel, mdr1a/1b KO mice versus WT mice ([3]; 30 min): approximately 5.1 fold
- Absorption Rate V of paclitaxel ([3]; 30 min, WT mice, no inhibitor): 12.4 nmol/min/kg
- Cpv − Csys of paclitaxel ([3]; 30 min, WT mice, no inhibitor): 165 ± 61 nM
- Absorption Rate V of paclitaxel ([3]; 30 min, mdr1a/1b KO mice): 63.7 nmol/min/kg
- Cpv − Csys of paclitaxel ([3]; 30 min, mdr1a/1b KO mice): 847 ± 144 nM
- t1/2 of paclitaxel ([4]; paclitaxel 5 mg/kg IV, WT mice): 2.38 h
- AUCpv of paclitaxel, mdr1a/1b KO mice versus WT mice ([4]; paclitaxel 20 mg/kg po): 3.3 fold
- AUCsys of paclitaxel, mdr1a/1b KO mice higher than WT mice ([4]; paclitaxel 20 mg/kg po): approximately 2.8 fold
- BA of paclitaxel, mdr1a/1b KO mice versus WT mice ([4]; paclitaxel 20 mg/kg po): 2.5 fold
- Cmax of paclitaxel in portal vein, mdr1a/1b KO mice versus WT mice ([4]; paclitaxel 20 mg/kg po): 3.5 fold
- Cmax of paclitaxel in systemic circulation, mdr1a/1b KO mice versus WT mice ([4]; paclitaxel 20 mg/kg po): 2.7 fold
- FaFg of paclitaxel, mdr1a/1b KO mice versus WT mice ([4]; paclitaxel 20 mg/kg po): 4.0 fold
- BA of paclitaxel ([4]; WT mice): 11.7%
- BA of paclitaxel ([4]; mdr1a/1b KO mice): 29.0%
- FaFg of paclitaxel [4, 12]: 16.6%
- Fh of paclitaxel [4, 12]: 70.6
- FaFg of paclitaxel ([4]; paclitaxel 20 mg/kg po, mdr1a/1b KO mice): 66.3%
- t1/2 of paclitaxel ([4]; paclitaxel 20 mg/kg po, mdr1a/1b KO mice, pv): 1.25 h
- Cmax ([4]; read-out: Cmax of paclitaxel, paclitaxel 20 mg/kg po, mdr1a/1b KO mice, pv): 2520 nM
- AUC (in vivo [5]; plasma, iv, 5 mg/kg): 2.66 µM·h
- MRT (in vivo [5]; plasma, iv, 5 mg/kg): 1.47 h
- Vd (in vivo [5]; plasma, iv, 5 mg/kg): 4.15 L/kg
- clearance (in vivo [5]; plasma, iv, 5 mg/kg): 36.7 mL/min/kg
- half-life (in vivo [5]; plasma, iv, 5 mg/kg): 2.12 h
- AUC (in vivo [5]; [13]): 6.58 µM·h
- MRT (in vivo [5]; [13]): 2.16 h
- Tmax (in vivo [5]; [13]): 1 h
- k el (in vivo [5]; [13]): 0.000153 s⁻¹
- AUC (in vivo [5]; [14]): 3.09 µM·h
- Cmax (in vivo [5]; [14]): 1180 nM
- MRT (in vivo [5]; [14]): 3.09 h
- Tmax (in vivo [5]; [14]): 1 h
- k el (in vivo [5]; [14]): 9.72e-05 s⁻¹
- half-life (in vivo [5]; systemic plasma, po, 20 mg/kg): 2 h
- AUC (in vivo [5]; male, plasma, iv, 5 mg/kg): 2.32 µM·h
- MRT (in vivo [5]; male, plasma, iv, 5 mg/kg): 1.71 h
- Vd (in vivo [5]; male, plasma, iv, 5 mg/kg): 4.32 L/kg
- clearance (in vivo [5]; male, plasma, iv, 5 mg/kg): 42 mL/min/kg
- AUC (in vivo [5]; [15]): 2 µM·h
- Cmax (in vivo [5]; [15]): 730 nM
- MRT (in vivo [5]; [15]): 2.51 h
- Tmax (in vivo [5]; [15]): 1 h
- half-life (in vivo [5]; [15]): 1.62 h
- k el (in vivo [5]; [15]): 0.000119 s⁻¹
- AUC (in vivo [5]; [16]): 1.09 µM·h
- Cmax (in vivo [5]; [16]): 442 nM
- MRT (in vivo [5]; [16]): 2.29 h
- Tmax (in vivo [5]; [16]): 1 h
- k el (in vivo [5]; [16]): 0.000139 s⁻¹
- half-life (in vivo [5]; male, systemic plasma, po, 20 mg/kg): 1.37 h
- concentration at 10 min (in vivo [6]; portal vein plasma): 967 nM
- concentration at 30 min (in vivo [6]; portal vein plasma): 1090 ± 118 nM
- concentration at 10 min (in vivo [6]; [17]): 218 ± 100 nM
- concentration at 30 min (in vivo [6]; [17]): 245 ± 69 nM
- concentration at 10 min (in vivo [6]; male, portal vein plasma): 439 nM
- concentration at 30 min (in vivo [6]; male, portal vein plasma): 328 ± 41 nM
- concentration at 10 min (in vivo [6]; [18]): 223 ± 76 nM
- concentration at 30 min (in vivo [6]; [18]): 135 ± 41 nM

Compound: CC[C@@]1(O)C(=O)OCc2c1cc1n(c2=O)Cc2cc3c(CN(C)C)c(O)ccc3nc2-1 [topotecan]
- concentration at 30 min ([7]; plasma (portal vein), Cpv of topotecan, mdr1a/1b KO mice): 236 ± 30 nM
- concentration at 30 min ([7]; plasma (systemic circulation, abdominal vein), Csys of topotecan, bcrp KO mice): 398 ± 88 nM
- concentration at 30 min ([7]; plasma (systemic circulation, abdominal vein), Csys of topotecan, mdr1a/1b KO mice): 207 ± 28 nM
- concentration at 30 min ([7]; portal vein plasma, Cpv of topotecan, bcrp KO mice): 469 nM
- concentration at 30 min ([7]; male, plasma (systemic circulation, abdominal vein), Csys of topotecan, WT mice, no inhibitor): 179 ± 25 nM
- concentration at 30 min ([7]; male, portal vein plasma, Cpv of topotecan, WT mice, no inhibitor): 196 ± 29 nM
- V of topotecan, bcrp KO mice versus WT mice ([7]; 30 min): approximately 4.1 fold
- V of topotecan, bcrp KO mice versus mdr1a/1b KO mice ([7]; 30 min): ~2.4 fold
- Absorption Rate V of topotecan ([7]; 30 min, WT mice, no inhibitor): 1.29 nmol/min/kg
- Cpv − Csys of topotecan ([7]; 30 min, WT mice, no inhibitor): 17.1 ± 5.7 nM
- Absorption Rate V of topotecan ([7]; 30 min, bcrp KO mice): 5.30 nmol/min/kg
- Cpv of topotecan ([7]; 30 min, bcrp KO mice): 469 ± 64 nM
- Cpv − Csys of topotecan ([7]; 30 min, bcrp KO mice): 70.5 ± 20 nM
- Absorption Rate V of topotecan ([7]; 30 min, mdr1a/1b KO mice): 2.17 nmol/min/kg
- Cpv − Csys of topotecan ([7]; 30 min, mdr1a/1b KO mice): 28.9 ± 8.4 nM

Now from value to compound, other results behind:

- Hill coefficient, ER of paclitaxel (P-gp [1]; Caco-2 monolayers): 3.41 ± 0.28
- basal-to-apical transport of paclitaxel (P-gp [1]; Caco-2 monolayers): significantly decreased
- IC50 (P-gp [1]; [8]): 46 ± 19 nM
- IC50 (P-gp [1]; [9]): 64 ± 40 nM
- IC50 (P-gp [1]; [10]): 234 ± 61 nM
Compound: COc1cc2c(cc1OC)CN(CCc1ccc(NC(=O)c3cc(OC)c(OC)cc3NC(=O)c3cnc4ccccc4c3)cc1)CC2 [XR9576, N-(2-([(4-(2-[3,4-Dihydro-6,7-dimethoxy-2(1H)-isoquinolinyl]ethyl)phenyl)amino]carbonyl)-4,5-dimethoxyphenyl)-3-quinolinecarboxamide]
- IC50 for P-gp-mediated Hoechst 33342 transport lower than that for BCRP-mediated Hoechst 33342 transport (P-gp [2]): approximately 20.1 fold
- Hill coefficient, ER of mitoxantrone (BCRP): 0.44 ± 0.05
- IC50 (BCRP; [11]): 1000 ± 45 nM
- IC50 (BCRP; read-out: IC50 on ER of mitoxantrone, 50% decrease of efflux ratio): 531 ± 162 nM

- Papp,AB (Caco-2 cell monolayers): 0.1 ×10⁻⁶ cm/s
Compound: lucifer yellow
